Laboratory results published in article PMC11328599, “Crystal structure of dihydroneopterin aldolase from Mycobacterium tuberculosis associated with 8-mercaptoguanine, and development of novel S8-functionalized analogues as inhibitors: Synthesis, enzyme inhibition, in vitro toxicity and antitubercular activity” (Journal of Enzyme Inhibition and Medicinal Chemistry, 2024).
≈ marks a conversion by molar mass, not a printed value. Where “and” joins values, the source holds several entries; their conditions need not be identical. Equal entries are not always repeated. Where two headings read alike, the source gives them in different places. One block for each compound: values may come before it.

Assays:
MtFolB = target: T1, MtFolB (Mycobacterium tuberculosis, UniProt P9WNC5); assay: Mode of inhibition and inhibition constants on MtFolB aldolase activity (Lineweaver-Burk); assay type: biochemical; settings: towards substrate DHNP; for Ki: read-out: Kis DHNP
T1 construct: made in house
Method: The mode of inhibition and the inhibition constants (Ki and/or Kis) were defined for the compounds 3a-e. There are three categories for the inhibition mode: competitive, where inhibitor and substrate binding are mutually exclusive; non-competitive, if the inhibitor can bind to both the free enzyme and the enzyme-substrate complex; or uncompetitive, when the inhibitor binds only to the enzyme-substrate complex. For each compound, 3 curves were performed with fixed-varied inhibitor concentration and varying the DHNP concentration until saturation of enzyme activity. For the compound 3a the fixed-varied concentrations were 0.2 μM, 0.5 μM and 0.8 μM (varying DHNP 0.5 – 10 μM). For the compound 3b the fixed-varied concentrations were 0.1 µM (varying DHNP 0.2 – 10 µM); 0.3 μM (varying DHNP 0.5 – 10 μM) and 0.6 μM (varying DHNP 0.5 – 15 μM). For the compound 3c the fixed-varied concentrations were 0.3 μM, 0.6 μM and 0.9 μM (varying DHNP 0.5 – 10 μM). For the compound 3d the fixed-varied concentrations were 0.5 μM, 1 μM (varying DHNP 0.5 – 10 μM) and 2.5 μM (varying DHNP 1 – 10 μM). For the compound 3e the fixed-varied concentrations were 1.4 µM, 3.5 µM (varying DHNP 0.5 – 10 µM) and 7 µM (varying DHNP 1 – 10 µM). Furthermore, we performed a control experiment with 10% DMSO in the absence of inhibitors varying the DHNP concentration until saturation (0.2 – 10 µM). The straight-line patterns obtained were used to define the mode of inhibition. The diagnostic signature of a competitive inhibitor is a set of lines that intersect on the y-axis, for non-competitive inhibitors the pattern of intersection is to the left of the y-axis and for uncompetitive inhibitors the lines are parallel to each other. The inhibition constants were calculated using Equation (2) for competitive inhibitors or Equation (3) for non-competitive inhibitors, where [I] is the inhibitor concentration, [S] is the substrate concentration, KM is the Michaelis-Menten constant, Vmax is the maximum velocity, Kis is the inhibition constant for the enzyme-substrate complex, and Kii is the inhibition constant for the enzyme-substrate-inhibitor complex. (2) 1/v0=KM/Vmax(1+[I]/Kis)1/[S]+1/Vmax (3) 1/v0=KM/Vmax(1+[I]/Kis)1/[S]+1/Vmax(1+[I]/Kii)

[1] = tested on: M. tuberculosis H37Rv strain; assay: Minimum inhibitory concentration, resazurin reduction microplate assay (REMA); assay type: cell-based; settings: Mycobacterium tuberculosis
physchem = assay type: physicochemical; settings: 25 °C, thermodynamic from solid
Method: The solubility of the compound 3e was evaluated under three pH conditions: pH 1.2 (HCl 0.1 M); pH 7.4 (PBS 1X); and pH 9.1 (NH4HCO3 0.1 M). For this assay, we prepared a suspension of compound 3e at 1 mg/mL in each buffer solution by vortexing it for 1 min. Then, the suspension was kept under constant shaking for 4 h at 25 °C. Subsequently, the suspension was centrifuged at 13,000 rpm for 15 min at 25 °C. The supernatant was quantified by ultra-high-performance liquid chromatography (UHPLC) using single-point calibration of a known concentration of the compound in DMSO. The experiment was performed in triplicate.

in vitro = assay type: cell-based; settings: % of cell viability ± SEM
Method: (§1) Cell viability assays in the presence of compound 3e were performed in both Vero (BCRJ code 0245) and HepG2 (BCRJ code 0291) cells using MTT (3-[4,5-dimethylthiazol-2-yl]-2,5 diphenyl tetrazolium bromide)[21] and neutral red uptake (NRU)[22] methods. Both cell lines were grown in Dulbecco’s Modified Eagle Medium (DMEM-Gibco, Grand Island, NY, USA) supplemented with 10% or 20% inactivated foetal bovine serum (FBS- Invitrogen) for Vero and HepG2, respectively, 1% penicillin (Gibco) and streptomycin (Gibco), and 0.1% fungizone (Gibco). The experiments were performed in 96-well plates. First, cells were seeded at 6 x 10^3 (Vero) or 7 x 10^3/well (HepG2) and incubated overnight at 37 °C under a 5% CO2 atmosphere. Then, the medium was removed and replaced with fresh medium containing the compound at a final concentration of 75 µM, 87.5 µM, or 100 µM with DMSO at a final concentration of 0.8%. Cells were incubated during 72 h at 37 °C under a 5% CO2 atmosphere. For the MTT assay, the medium was removed after the incubation and replaced with MTT reagent (Sigma-Aldrich) at 5 mg/mL, and then the cells were incubated for 4 h. DMSO was used to solubilise formazan crystals. The absorbance was measured at 570 nm using microplate reader (EZ Read 400 microplate reader, Biochrom, Cambridge, UK). Precipitated purple formazan crystals were directly proportional to the number of live cells with mitochondrial metabolism. For the NRU assay, after the incubation with the compound, the media was removed and 200 µL of neutral red dye solution (Sigma-Aldrich) at 25 µg/mL prepared in serum-free medium was added to each well. The plate was then incubated for 3 h at 37 °C under 5% CO2. After this time, cells were washed twice with PBS, followed by incubation with 100 μL of a desorb solution (ethanol/acetic acid/water, […]) for 30 min, with gentle shaking to extract neutral red dye from the viable cells. The absorbance was measured at 562 nm using microplate reader (EZ Read 400 microplate reader, Biochrom, Cambridge, UK). Treated control wells (0.8% DMSO) were used as references for maximum cell viability (100%). Three independent experiments were performed, and the data were expressed as the means of cell viability ± the standard error of the means. Statistical analysis was performed using one-way ANOVA analysis of variance followed by Dunett’s Multiple Comparison Test post-test using GraphPad Prism 9.0.0 (San Diego, CA, USA).

Vero cells = assay: in vitro; assay type: cell-based; settings: for % of cell viability ± SEM: African green monkey, 72 h
Method: as §1

HepG2 cells = assay: in vitro; assay type: cell-based; settings: for % of cell viability ± SEM: human, 72 h
Method: as §1

[2] = REMA, 7 days + 48 h resazurin, read-out: MIC
[3] = converted from µg/mL, read-out: MIC (equivalent)

T1 sequence (P9WNC5 whole entry): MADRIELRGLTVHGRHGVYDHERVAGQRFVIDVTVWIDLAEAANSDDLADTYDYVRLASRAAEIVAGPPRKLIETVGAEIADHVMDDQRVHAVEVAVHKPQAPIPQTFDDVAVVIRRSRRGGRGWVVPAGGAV

melting point: 280 to 282 °C (dec.)
Structure (SMILES): Nc1nc2[nH]c(SCC(=O)NC3CCCC3)nc2c(=O)[nH]1 [Compound 3h, 2-((2-amino-6-oxo-6,9-dihydro-1H-purin-8-yl)thio)-N-cyclopentylacetamide]

Structure (SMILES): Nc1nc2[nH]c(SCC(=O)Nc3ccc4c(c3)CCCC4)nc2c(=O)[nH]1 [Compound 3d, 2-((2-amino-6-oxo-6,9-dihydro-1H-purin-8-yl)thio)-N-(5,6,7,8-tetrahydronaphthalen-2-yl)acetamide]
Inhibition mode (MtFolB): Competitive
Ki (MtFolB): 0.2 ± 0.05 µM
melting point: 294 to 295 °C (dec.)

melting point: 294 to 296 °C (dec.)
Structure (SMILES): C[C@H](NC(=O)CSc1nc2c(=O)[nH]c(N)nc2[nH]1)C1CCCCC1 [Compound 3m, (S)-2-((2-amino-6-oxo-6,9-dihydro-1H-purin-8-yl)thio)-N-(1-cyclohexylethyl)acetamide]

Structure (SMILES): Nc1nc2[nH]c(SCC(=O)Nc3cccc4c3CCCC4)nc2c(=O)[nH]1 [Compound 3e, 2-((2-amino-6-oxo-6,9-dihydro-1H-purin-8-yl)thio)-N-(5,6,7,8-tetrahydronaphthalen-1-yl)acetamide]
Inhibition mode (MtFolB): Non-competitive
Kii DHNP (MtFolB): 6.3 µM and 6.3 ± 1.2 µM
Ki (MtFolB): 1.4 ± 0.3 µM
MIC [1, 2]: 40 mg/L
MIC [1, 3]: 108 µM
solubility at 4 h (physchem; pH 1.2, simulated gastric fluid): 612 µM (≈ 227 µg/mL)
solubility at 4 h (physchem; pH 7.4, aqueous buffer): 1.1 µM (≈ 0.407 µg/mL)
solubility at 4 h (physchem; pH 9.1, aqueous buffer): 37.6 µM (≈ 13.9 µg/mL)
melting point: 260 to 261 °C (dec.)
viability at 72 h, 75 µM (in vitro; African green monkey): 115 ± 2%
viability at 72 h, 87.5 µM (in vitro; African green monkey): 94 ± 10%
viability at 72 h, 100 µM (in vitro; African green monkey): 94 ± 3%
viability at 72 h, 75 µM (in vitro; human): 108 ± 3%
viability at 72 h, 87.5 µM (in vitro; human): 97 ± 2%
viability at 72 h, 100 µM (in vitro; human): 96 ± 2%
toxicity (Vero cells): no apparent toxicity
% of cell viability ± SEM (Vero cells; 75 µM): 96 ± 1%
% of cell viability ± SEM (Vero cells; 87.5 µM): 102 ± 3%
% of cell viability ± SEM (Vero cells; 100 µM): 96 ± 2%
toxicity (HepG2 cells): no apparent toxicity
% of cell viability ± SEM (HepG2 cells; 75 µM): 100 ± 6%
% of cell viability ± SEM (HepG2 cells; 87.5 µM): 111 ± 3%
% of cell viability ± SEM (HepG2 cells; 100 µM): 104 ± 2%

melting point: 285 to 287 °C (dec.)
Structure (SMILES): Nc1nc2[nH]c(SCC(=O)NC3CCC3)nc2c(=O)[nH]1 [Compound 3i, 2-((2-amino-6-oxo-6,9-dihydro-1H-purin-8-yl)thio)-N-cyclobutylacetamide]

melting point: 289 to 291 °C (dec.)
Structure (SMILES): C[C@@H]1[C@H](NC(=O)CSc2nc3c(=O)[nH]c(N)nc3[nH]2)C[C@H]2C[C@@H]1C2(C)C [Compound 3k, 2-((2-amino-6-oxo-6,9-dihydro-1H-purin-8-yl)thio)-N-((1S,2S,3R,5R)-2,6,6-trimethylbicyclo [3.1.1]heptan-3-yl)acetamide]

melting point: 292 to 294 °C (dec.)
Structure (SMILES): Nc1nc2[nH]c(SCC(=O)NC3CCCCCC3)nc2c(=O)[nH]1 [Compound 3f, 2-((2-amino-6-oxo-6,9-dihydro-1H-purin-8-yl)thio)-N-cycloheptylacetamide]

Structure (SMILES): Nc1nc2[nH]c(SCC(=O)Nc3ccc(N4CCCCC4)cc3)nc2c(=O)[nH]1 [Compound 3a, 2-((2-amino-6-oxo-6,9-dihydro-1H-purin-8-yl)thio)-N-(4-(piperidin-1-yl)phenyl)acetamide]
Inhibition mode (MtFolB): Competitive
Ki (MtFolB): 0.4 ± 0.1 µM
melting point: 258 to 260 °C (dec.)

melting point: 272 to 274 °C (dec.)
Structure (SMILES): CN(C(=O)CSc1nc2c(=O)[nH]c(N)nc2[nH]1)C1CCCCC1 [Compound 3j, 2-((2-amino-6-oxo-6,9-dihydro-1H-purin-8-yl)thio)-N-cyclohexyl-N-methylacetamide]

Structure (SMILES): Nc1nc2[nH]c(SCC(=O)Nc3ccc(C(=O)N4CCCC4)cc3)nc2c(=O)[nH]1 [Compound 3c, 2-((2-amino-6-oxo-6,9-dihydro-1H-purin-8-yl)thio)-N-(4-(pyrrolidine-1-carbonyl)phenyl)acetamide]
Inhibition mode (MtFolB): Non-competitive
Kii DHNP (MtFolB): 1.5 µM and 1.5 ± 0.9 µM
Ki (MtFolB): 0.3 ± 0.2 µM
melting point: 237 to 239 °C (dec.)

melting point: 289 to 291 °C (dec.)
Structure (SMILES): C[C@@H](NC(=O)CSc1nc2c(=O)[nH]c(N)nc2[nH]1)C1CCCCC1 [Compound 3n, (R)-2-((2-amino-6-oxo-6,9-dihydro-1H-purin-8-yl)thio)-N-(1-cyclohexylethyl)acetamide]

Structure (SMILES): Nc1nc2[nH]c(SCC(=O)Nc3ccc(N4CCOCC4)cc3)nc2c(=O)[nH]1 [Compound 3b, 2-((2-amino-6-oxo-6,9-dihydro-1H-purin-8-yl)thio)-N-(4-morpholinophenyl)acetamide]
Inhibition mode (MtFolB): Competitive
Ki (MtFolB): 0.3 ± 0.08 µM
melting point: 326 to 328 °C (dec.)

melting point: 282 to 284 °C (dec.)
Structure (SMILES): CC1CCC(NC(=O)CSc2nc3c(=O)[nH]c(N)nc3[nH]2)CC1 (centres unmarked) [Compound 3g, 2-((2-amino-6-oxo-6,9-dihydro-1H-purin-8-yl)thio)-N-(4-methylcyclohexyl)acetamide]

Structure (SMILES): NNC(=O)c1ccncc1 [INH, Isoniazid]
MIC [1, 2]: 0.31 mg/L
MIC [1, 3]: 2.3 µM

melting point: 262 to 263 °C (dec.)
Structure (SMILES): Nc1nc2[nH]c(SCC(=O)NCC3CCCCC3)nc2c(=O)[nH]1 [Compound 3l, 2-((2-amino-6-oxo-6,9-dihydro-1H-purin-8-yl)thio)-N-(cyclohexylmethyl)acetamide]
